Reference: PubChem BioAssay (NCI)
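In this assay, cells in 96-well plates receive the compound at five concentrations for 48 hours. Endpoints are linearly interpolated between the surrounding concentrations. GI50: concentration for 50% inhibition of growth. The concentration for full growth arrest is given as TGI.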

Columns and labels:
Assay in all cases: inhibition of tumour cell growth, NCI panel, 48 h
HS 578T breast = system: HS 578T breast
OVCAR-3 ovarian = system: OVCAR-3 ovarian
RPMI-8226 leukemia = system: RPMI-8226 leukemia
HOP-62 NSCLC = system: HOP-62 NSCLC
SK-OV-3 ovarian = system: SK-OV-3 ovarian
IGROV1 ovarian = system: IGROV1 ovarian
EKVX NSCLC = system: EKVX NSCLC
SNB-19 CNS = system: SNB-19 CNS
CAKI-1 renal = system: CAKI-1 renal
DU-145 prostate = system: DU-145 prostate

## CN(C)CCNc1nc2ccccc2c2c(=O)c3ccccc3sc12
HS 578T breast
  GI50: 2.89 µM
  TGI: 11.7 µM
OVCAR-3 ovarian
  GI50: 2.06 µM
  TGI: 5.46 µM
RPMI-8226 leukemia
  GI50: 2.42 µM
  TGI: 6.35 µM
HOP-62 NSCLC
  GI50: 1.94 µM
  TGI: 4.29 µM
SK-OV-3 ovarian
  GI50: 4.68 µM
  TGI: 19 µM
IGROV1 ovarian
  GI50: 1.81 µM
  TGI: 4.53 µM
EKVX NSCLC
  GI50: 1.66 µM
  TGI: 4.98 µM
SNB-19 CNS
  GI50: 2.83 µM
  TGI: 11.3 µM
CAKI-1 renal
  GI50: 3.11 µM
  TGI: 14.5 µM
DU-145 prostate
  GI50: 2.31 µM
  TGI: 6.83 µM

## O=C(NCCCCOCC#Cc1ccccc1C#CCS(=O)(=O)c1ccccc1)c1cc2ccccc2[nH]1
HS 578T breast
  GI50: 21.9 µM
  TGI: > 50 µM
OVCAR-3 ovarian
  GI50: 14 µM
  TGI: > 35 µM
RPMI-8226 leukemia
  GI50: 2.78 µM
  TGI: 13.2 µM
HOP-62 NSCLC
  GI50: 21.5 µM
  TGI: > 50 µM
SK-OV-3 ovarian
  GI50: 19.5 µM
  TGI: > 50 µM
IGROV1 ovarian
  GI50: 2.68 µM
  TGI: 7.03 µM
EKVX NSCLC
  GI50: 22.5 µM
  TGI: > 50 µM
SNB-19 CNS
  GI50: 15.1 µM
  TGI: > 50 µM
CAKI-1 renal
  GI50: 14.9 µM
  TGI: > 38.2 µM
DU-145 prostate
  GI50: 18.1 µM
  TGI: > 50 µM

## O=C1c2ccccc2-c2c1c1ccccc1c(=O)n2-c1ccccc1
HS 578T breast
  TGI: > 87.4 µM
OVCAR-3 ovarian
  TGI: 34 µM
RPMI-8226 leukemia
  TGI: > 100 µM
HOP-62 NSCLC
  TGI: 14.9 µM
SK-OV-3 ovarian
  TGI: 26.4 µM
IGROV1 ovarian
  TGI: > 52.7 µM
EKVX NSCLC
  TGI: > 100 µM
SNB-19 CNS
  TGI: 20.4 µM
CAKI-1 renal
  TGI: 34.7 µM
DU-145 prostate
  TGI: > 100 µM

## CCOC(=S)SCN1C(=O)c2ccccc2S1(=O)=O
HS 578T breast
  GI50: 29.4 µM
  TGI: 82.5 µM
OVCAR-3 ovarian
  GI50: 0.0358 µM
  TGI: 17.3 µM
RPMI-8226 leukemia
  GI50: 12.8 µM
  TGI: 38.2 µM
HOP-62 NSCLC
  GI50: 24.6 µM
  TGI: 65.8 µM
SK-OV-3 ovarian
  GI50: 32.1 µM
  TGI: > 100 µM
IGROV1 ovarian
  GI50: 18.5 µM
  TGI: 52.4 µM
EKVX NSCLC
  GI50: 19.7 µM
  TGI: 36.6 µM
SNB-19 CNS
  GI50: 28.7 µM
  TGI: 88.8 µM
CAKI-1 renal
  GI50: 13 µM
  TGI: 27.6 µM
DU-145 prostate
  GI50: 16.5 µM
  TGI: 34.2 µM

## CCCn1c(N)c(C(=O)CNc2ccc(I)cc2)c(=O)[nH]c1=O
HS 578T breast
  GI50: 17.4 µM
  TGI: > 100 µM
OVCAR-3 ovarian
  GI50: > 48.4 µM
  TGI: > 100 µM
RPMI-8226 leukemia
  GI50: 0.51 µM
  TGI: > 100 µM
HOP-62 NSCLC
  GI50: 9.98 µM
  TGI: > 100 µM
SK-OV-3 ovarian
  GI50: > 100 µM
  TGI: > 100 µM
IGROV1 ovarian
  GI50: 18 µM
  TGI: > 100 µM
EKVX NSCLC
  GI50: > 64.3 µM
  TGI: > 100 µM
SNB-19 CNS
  GI50: 2.02 µM
  TGI: > 59.5 µM
CAKI-1 renal
  GI50: 6.53 µM
  TGI: > 100 µM
DU-145 prostate
  GI50: 7.12 µM
  TGI: > 100 µM

## Cc1c(C(=O)O[C@H]2[C@@H]3[C@H](C)CC[C@H]3[C@]3(C)O[C@@]2(C2CCCCC2)C[C@H]3OC(=O)CO)ccc2ccccc12
HS 578T breast
  GI50: 0.0165 µM
  TGI: 0.142 µM
OVCAR-3 ovarian
  GI50: 7.57 µM
  TGI: 14.4 µM
RPMI-8226 leukemia
  GI50: 8.89 µM
  TGI: 20.6 µM
HOP-62 NSCLC
  GI50: 8.48 µM
  TGI: 15.3 µM
SK-OV-3 ovarian
  GI50: 9.19 µM
  TGI: 17.1 µM
IGROV1 ovarian
  GI50: 8.39 µM
  TGI: 17.3 µM
EKVX NSCLC
  GI50: 6.94 µM
  TGI: 14.2 µM
SNB-19 CNS
  GI50: 8.56 µM
  TGI: 15.6 µM
CAKI-1 renal
  GI50: 0.244 µM
  TGI: 6.82 µM
DU-145 prostate
  GI50: 7.77 µM
  TGI: 14.6 µM

## Cc1nnc(-c2ccc(-c3nc4ccccc4o3)cc2)o1
HS 578T breast
  GI50: 95.1 µM
  TGI: > 100 µM
OVCAR-3 ovarian
  GI50: > 100 µM
  TGI: > 100 µM
RPMI-8226 leukemia
  GI50: > 100 µM
  TGI: > 100 µM
HOP-62 NSCLC
  GI50: 42.8 µM
  TGI: > 100 µM
SK-OV-3 ovarian
  GI50: 29.7 µM
  TGI: 77.7 µM
IGROV1 ovarian
  GI50: > 100 µM
  TGI: > 100 µM
EKVX NSCLC
  GI50: 85 µM
  TGI: > 100 µM
SNB-19 CNS
  GI50: 20.7 µM
  TGI: 43.1 µM
CAKI-1 renal
  GI50: > 100 µM
  TGI: > 100 µM
DU-145 prostate
  GI50: 42.2 µM
  TGI: > 100 µM

## Cc1sc2ncn(Cc3ccc(Cl)c(Cl)c3)c(=O)c2c1C
HS 578T breast
  GI50: 35.2 µM
  TGI: > 100 µM
OVCAR-3 ovarian
  GI50: 8.04 µM
  TGI: 38.3 µM
RPMI-8226 leukemia
  GI50: 12.2 µM
  TGI: > 100 µM
HOP-62 NSCLC
  GI50: 14 µM
  TGI: 36.7 µM
SK-OV-3 ovarian
  GI50: 46.8 µM
  TGI: > 100 µM
IGROV1 ovarian
  GI50: 9.28 µM
  TGI: 42.8 µM
EKVX NSCLC
  GI50: 22.2 µM
  TGI: > 100 µM
SNB-19 CNS
  GI50: 38 µM
  TGI: > 100 µM
CAKI-1 renal
  GI50: 3.47 µM
  TGI: 32.9 µM
DU-145 prostate
  GI50: 44.3 µM
  TGI: > 100 µM

## O=C(Nc1cccc(C(F)(F)F)c1)c1cc(Br)cc(Br)c1O
HS 578T breast
  TGI: > 10 µM
OVCAR-3 ovarian
  TGI: 6.14 µM
RPMI-8226 leukemia
  TGI: 5.86 µM
HOP-62 NSCLC
  TGI: > 10 µM
SK-OV-3 ovarian
  TGI: 9.38 µM
IGROV1 ovarian
  TGI: > 10 µM
EKVX NSCLC
  TGI: 8.06 µM
SNB-19 CNS
  TGI: > 10 µM
CAKI-1 renal
  TGI: 6.6 µM
DU-145 prostate
  TGI: > 10 µM
